Assays:
A1 receptors = target: T1, A1 receptors (Rattus norvegicus, UniProt P25099); assay: Binding to adenosine A1 receptors: competitive displacement of [^3 H] PIA, rat brain membranes; settings: [^3 H] PIA 2.5 nM, n=3; for inhibition at 10 µM: 10^-5 M, read-out: % displacement of the labeled ligand, A1, 1E-5M; for % displacement of the labeled ligand, A1, 1E-7M: 10^-7 M, 0.1 µM
T1 construct: the brain is quickly removed and washed in cold isotonic solution; from tissue; host or cells: rat brain hemispheres (membrane homogenate)
T1 sequence (P25099 1-326): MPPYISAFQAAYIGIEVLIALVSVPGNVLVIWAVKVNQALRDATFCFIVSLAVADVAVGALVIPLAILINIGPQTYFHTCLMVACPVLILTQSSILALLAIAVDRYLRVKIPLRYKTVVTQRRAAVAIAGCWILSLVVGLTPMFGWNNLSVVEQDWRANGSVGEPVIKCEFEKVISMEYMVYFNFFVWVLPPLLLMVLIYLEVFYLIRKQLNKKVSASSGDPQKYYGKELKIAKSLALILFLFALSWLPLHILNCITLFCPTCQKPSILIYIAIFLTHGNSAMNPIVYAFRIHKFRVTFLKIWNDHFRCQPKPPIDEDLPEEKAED
Protocol: (§1) The affinity of the products of the Examples for the rat central A1 and A2 adenosinergic receptors is determined by the competitive technique using a radioactive ligand specifically bound either to the A1 receptors ([^3 H] PIA) or to the A2 receptors ([^3 H] NECA).
After the animal has been sacrificed by decapitation, the brain is quickly removed and washed in cold isotonic solution. The two hemispheres are separated and weighed and each of them is introduced into a polyallomer tube containing 25 volumes of cold homogenization buffer. Homogenization is effected using an Ultra-Turrax for 30 seconds (3 times 10 seconds with 10-second intervals, 70% of the maximum speed). The ground material obtained is centrifuged at 1000 g (≈3000 rpm) for 10 minutes at 4° C.
The supernatant is centrifuged again at 48,000 g (≈20,000 rpm) for 20 minutes at 4° C.
When this step is complete, the residue is taken up with 4 volumes of homogenization buffer, resuspended using a Vortex and homogenized with the Ultra-Turrax. Adenosine deaminase is then added at a rate of 1 U/ml, i.e. 1 μl/ml of homogenate, using a 10 μl Hamilton syringe.
After this treatment, the homogenate is shaken for 30 minutes at room temperature and then centrifuged at […] (≈20,000 rpm) for 30 minutes at 4° C.
The residue obtained is resuspended in 10 volumes of homogenization buffer and passed through the Ultra-Turrax for 20 seconds (2 times 10 seconds with a 10-second interval, 70% of the maximum speed).
The homogenate prepared in this way is used for the competitive tests. It is kept at 4° C. if the studies take place the same day, or stored at -20° C. in the form of 10 ml aliquots.
After the homogenate has been thawed at room temperature, it is passed through a Potter homogenizer (6 manual to-and-fro movements, speed 6), diluted to 2/5 in incubation buffer and placed in a water bath thermostated at 4° C., with shaking, until the end of the experiment.
(§2) 50 μl of [^3 H] PIA at 100 nM, i.e. 2.5 nM in the final reaction medium allowing for the 1/40 dilution, and 50 μl of the product of the Example at the concentrations considered (10^-5 M and 10^-7 M) are introduced into the reaction tubes. The reaction is initiated by the addition of 1 ml of homogenate and 900 μl of incubation buffer. The procedure is identical for all the beta-blockers studied.
(§3) The tubes are shaken and incubated in a water bath at 20° C. for 30 minutes. When the incubation is complete, the contents of the tubes are filtered on Whatman GF/B paper. Each tube is washed twice with 2 ml of rinsing buffer and then the filters themselves are rinsed with 3 ml of this same buffer.
The filters are then transferred to counting flasks and 10 ml of liquid scintillator (Ready Solv HP/b, Beckman) are added.
After they have been shaken, the flasks are stored in a refrigerator overnight and the radioactivity is then determined in a liquid scintillation counter.
(§4) 3 tests are performed for each concentration studied. The non-specific binding of the [^3 H] PIA is assessed by measuring the amount of radioactivity retained on the filter in the presence of 10^-5 M phenylisopropyladenosine (PIA). The value of the non-specific binding is systematically subtracted from that of the tests.
(§5) The results are expressed for each product in the form of the percentage displacement (n=3) of the labeled radioligand at concentrations of 10^-5 M and 10^-7 M.

A2 receptors = target: T2, A2 receptors (Rattus norvegicus, UniProt P30543); assay: Binding to adenosine A2 receptors: competitive displacement of [^3 H] NECA, rat striatum membranes; settings: [^3 H] NECA 4 nM, n=3; for % displacement of the labeled ligand, A2, 1E-5M: 10 µM; for % displacement of the labeled ligand, A2, 1E-7M: 10^-7 M, 0.1 µM
T2 construct: The two hemispheres are separated and the striatum is removed from each of them (Bruns et al., 1986); from tissue; host or cells: rat striatum (membrane homogenate)
Protocol: as §1
After decapitation of the animal, the brain is quickly removed and washed in cold isotonic solution. The two hemispheres are separated and the striatum is removed from each of them (Bruns et al., 1986), weighed and introduced into a polyallomer tube containing 10 volumes of cold homogenization buffer. The tissue is homogenized with an Ultra-Turrax for 30 seconds (3 times 10 seconds with 10-second intervals, 70% of the maximum speed). The ground material is centrifuged at 50,000 g (≈20,500 rpm) for 10 minutes at 4° C.
The residue obtained is resuspended in 10 volumes of homogenization buffer using a Vortex and homogenized with the Ultra-Turrax (5 to 10 seconds, 70% of the maximum speed).
Adenosine deaminase is then added at a rate of 1 U/ml, i.e. 1 μl/ml of homogenate, using a 10 μl Hamilton syringe. The homogenate treated in this way is shaken at room temperature for 30 minutes.
When the incubation is complete, the homogenate is centrifuged at 50,000 g (≈20,500 rpm) for 10 minutes at 4° C.
The residue is taken up with 5 volumes of cold homogenization buffer and passed through the Ultra-Turrax (2 times 10 seconds with a 10-second interval, 70% of the maximum speed) and the homogenate prepared in this way is finally frozen at -70° C.
After the homogenate has been thawed at room temperature, 15 volumes of incubation buffer are added. The homogenate is shaken on a Vortex, passed through a Potter homogenizer (6 to-and-fro movements, speed 6), diluted to 1/10 in incubation buffer and finally placed in a water bath thermostated at 4° C., with shaking, until the end of the experiment.
as §2, with “NECA” for “PIA”, “160” for “100”, “4” for “2.5”, “similar” for “identical”, “compounds” for “beta-blockers”
as §3, with “25°” for “20°”, “60” for “30”, “buffer before being transferred to counting flasks.” for “buffer.”
10 ml of liquid scintillator (Ready Solv HP/b, Beckman) are added to all the flasks. These are shaken and stored in a refrigerator overnight. The radioactivity is determined in a liquid scintillation counter.
as §4, with “NECA” for “PIA”, “determined” for “assessed”, “5 μM N-ethylcarboxamidoadenosine (NECA).” for “10^-5 M phenylisopropyladenosine (PIA).”
as §5

[1] = system: twisting and stretching movements in mice; assay: Phenylbenzoquinone test (analgesic activity); type: in vivo; settings: p.o., one hour before phenylbenzoquinone i.p., 5 minutes observation
Protocol: The intraperitoneal injection of phenylbenzoquinone causes twisting and stretching movements in mice. Analgesics prevent or reduce this syndrome, which can be considered as the exteriorization of diffuse abdominal pain.
A 0.02% solution of phenylbenzoquinone in water is administered in a volume of 1 ml/100 g.
The products of the Examples are administered orally one hour before the injection of phenylbenzoquinone.
The stretching and twisting movements are counted for each mouse over an observation period of 5 minutes.

T2 sequence (P30543 whole entry): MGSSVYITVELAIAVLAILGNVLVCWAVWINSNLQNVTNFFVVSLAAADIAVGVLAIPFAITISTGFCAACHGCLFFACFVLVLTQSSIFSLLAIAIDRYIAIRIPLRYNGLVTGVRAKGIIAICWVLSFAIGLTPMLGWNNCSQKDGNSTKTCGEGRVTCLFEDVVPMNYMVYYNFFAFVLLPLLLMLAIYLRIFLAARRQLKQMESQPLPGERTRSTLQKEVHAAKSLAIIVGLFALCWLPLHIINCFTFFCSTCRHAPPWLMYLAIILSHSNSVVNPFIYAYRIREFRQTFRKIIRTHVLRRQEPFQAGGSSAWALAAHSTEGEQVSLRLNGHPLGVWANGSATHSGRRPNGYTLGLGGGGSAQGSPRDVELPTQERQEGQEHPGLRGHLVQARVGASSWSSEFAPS

Row | inhibition at 10 µM (A1 receptors) [%] | % displacement of the labeled ligand, A1, 1E-7M (A1 receptors) [%] | % displacement of the labeled ligand, A2, 1E-5M (A2 receptors; 10^-5 M) [%] | % displacement of the labeled ligand, A2, 1E-7M (A2 receptors) [%] | inhibition at 10 µM (A2 receptors; 10^-5 M, read-out: % displacement of the labeled ligand, A2, 1E-5M) [%] | Compound | Phenylbenzoquinone test 50% inhibitory dose [1]
1 | 90 | 10 | 100 | 19 |  | O=C(NC1CC1)[C@H]1O[C@@H](n2cnc3c(NCC4CC4(c4ccccc4)c4ccccc4)ncnc32)[C@H](O)[C@@H]1O (single isomer, unassigned) [Example 44, β-D-Ribofuranuronamido-N-cyclopropyl-1-deoxy-1-[6-[(-)-[[2,2-diphenylcyclopropyl]methyl]amino]-9H-purin-9-yl]] | ≈ 1 mg/kg
2 | 99 | 54 |  | 71 | 92 | CCNC(=O)[C@H]1O[C@@H](n2cnc3c(NCC4CC4(c4ccccc4)c4ccccc4)ncnc32)[C@H](O)[C@@H]1O (single isomer, unassigned) [Example 48, β-D-Ribofuranuronamido-N-ethyl-1-deoxy-1-[6-[(+)-[[2,2-diphenylcyclopropyl]methyl]amino]-9H-purin-9-yl]] | 0.3 mg/kg
3 | 93 | 15 | 86 | 0 |  | CCNC(=O)[C@H]1O[C@@H](n2cnc3c(NCC4CC4(c4ccccc4)c4ccccc4)ncnc32)[C@H](O)[C@@H]1O (single isomer, unassigned) [Example 49, β-D-Ribofuranuronamido-N-ethyl-1-deoxy-1-[6-[(-)-[[2,2-diphenylcyclopropyl]methyl]amino]-9H-purin-9-yl]] | 0.7 mg/kg

— patent US5219839A, “Adenosine derivatives, their methods of preparation and pharmaceutical compositions in which they are present” (Laboratories UPSA, priority 1992, dated 1993)
